Values of other authors, collected in patent US20260355230A1, “SODIUM BICARBONATE PRODUCT FOR CHILDBIRTH LABOR” (LAMINARIA GROUP AB, priority 2023, published 2026).

Columns and labels:
[1] = large amounts, particularly as an aqueous solution
[2] = 4.26 g sodium bicarbonate dissolved in water, oral

O=C([O-])O.[Na+] [sodium bicarbonate]
gastrointestinal side-effect [1]: acute gastrointestinal (GI) distress
pH in maternal blood [2]: increased significantly
fetal outcome ([2]; vs untreated group): a difference in fetal outcome was shown between the two groups
frequency of spontaneous vaginal deliveries ([2]; vs untreated group): substantially higher
AFL levels ([2]; vs untreated group, AFL >10.1 mmol/L): fell significantly
